Reference: ChEMBL document CHEMBL3132769, “Fragment growing to retain or alter the selectivity of anchored kinase hinge-binding fragments” (Medchemcomm, 2014)

What was measured:
[1] = biological target: T1, Serine/threonine-protein kinase D2 (Homo sapiens) (UniProt Q9BZL6); assay: Inhibition of human full length PKD2 expressed in baculovirus assessed as substrate phosphorylation using fluorescence-labelled peptides as substrate at 0.2 uM after 90 mins by microfluidic peptide phosphorylation assay
T1 sequence (whole entry): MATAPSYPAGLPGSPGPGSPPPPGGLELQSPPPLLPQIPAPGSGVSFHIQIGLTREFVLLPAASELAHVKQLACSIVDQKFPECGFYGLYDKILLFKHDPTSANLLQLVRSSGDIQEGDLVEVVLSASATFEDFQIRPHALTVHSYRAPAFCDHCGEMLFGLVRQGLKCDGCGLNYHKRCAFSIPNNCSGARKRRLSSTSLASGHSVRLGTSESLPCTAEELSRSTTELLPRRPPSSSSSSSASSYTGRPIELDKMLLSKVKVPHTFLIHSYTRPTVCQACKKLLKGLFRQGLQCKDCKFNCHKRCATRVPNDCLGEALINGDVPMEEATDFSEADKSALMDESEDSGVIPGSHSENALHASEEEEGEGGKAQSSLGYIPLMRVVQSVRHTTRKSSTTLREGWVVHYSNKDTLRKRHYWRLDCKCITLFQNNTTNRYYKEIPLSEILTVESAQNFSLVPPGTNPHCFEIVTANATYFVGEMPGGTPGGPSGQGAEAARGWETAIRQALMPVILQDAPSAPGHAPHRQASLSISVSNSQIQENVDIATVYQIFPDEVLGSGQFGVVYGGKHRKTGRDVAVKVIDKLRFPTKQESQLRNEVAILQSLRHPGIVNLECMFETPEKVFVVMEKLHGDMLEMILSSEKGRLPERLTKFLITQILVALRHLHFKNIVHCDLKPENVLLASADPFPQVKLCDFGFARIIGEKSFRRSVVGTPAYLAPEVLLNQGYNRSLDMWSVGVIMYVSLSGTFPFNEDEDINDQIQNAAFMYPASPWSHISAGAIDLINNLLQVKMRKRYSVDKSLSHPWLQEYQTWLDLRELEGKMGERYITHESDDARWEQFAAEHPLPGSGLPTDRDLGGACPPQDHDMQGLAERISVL

[2] = biological target: MAP/microtubule affinity-regulating kinase 3 (Homo sapiens) (UniProt P27448); assay: Inhibition of human full length c-TAK1 expressed in Escherichia coli cell assessed as substrate phosphorylation using fluorescence-labelled peptides as substrate at 0.2 uM after 90 mins by microfluidic peptide phosphorylation assay
MAP/microtubule affinity-regulating kinase 3 (Homo sapiens), sequence (P27448 whole entry, looked up, the tested form may be a part): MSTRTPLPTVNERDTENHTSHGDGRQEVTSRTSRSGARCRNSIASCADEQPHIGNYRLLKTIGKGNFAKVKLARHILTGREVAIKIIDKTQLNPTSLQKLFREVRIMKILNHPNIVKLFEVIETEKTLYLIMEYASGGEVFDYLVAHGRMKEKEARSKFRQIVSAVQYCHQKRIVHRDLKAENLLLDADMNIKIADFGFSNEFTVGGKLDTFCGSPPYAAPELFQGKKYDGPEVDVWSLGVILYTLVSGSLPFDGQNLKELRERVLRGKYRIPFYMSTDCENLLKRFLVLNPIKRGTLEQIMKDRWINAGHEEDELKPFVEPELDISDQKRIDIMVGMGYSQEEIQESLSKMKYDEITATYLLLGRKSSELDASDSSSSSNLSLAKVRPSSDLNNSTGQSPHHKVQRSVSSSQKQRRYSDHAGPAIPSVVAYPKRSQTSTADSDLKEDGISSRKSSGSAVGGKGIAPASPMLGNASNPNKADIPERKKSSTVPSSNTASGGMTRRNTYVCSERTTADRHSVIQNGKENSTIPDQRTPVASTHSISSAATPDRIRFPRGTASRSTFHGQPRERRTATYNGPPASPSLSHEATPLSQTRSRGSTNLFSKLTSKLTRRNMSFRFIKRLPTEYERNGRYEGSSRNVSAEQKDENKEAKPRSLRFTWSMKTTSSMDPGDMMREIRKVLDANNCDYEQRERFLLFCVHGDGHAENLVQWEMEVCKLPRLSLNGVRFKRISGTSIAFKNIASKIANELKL

[3] = biological target: Mitogen-activated protein kinase 1 (Homo sapiens) (UniProt P28482); assay: Inhibition of human full length ERK2 expressed in Escherichia coli cell assessed as substrate phosphorylation using fluorescence-labelled peptides as substrate at 0.2 uM after 90 mins by microfluidic peptide phosphorylation assay
Mitogen-activated protein kinase 1 (Homo sapiens), sequence (P28482 whole entry): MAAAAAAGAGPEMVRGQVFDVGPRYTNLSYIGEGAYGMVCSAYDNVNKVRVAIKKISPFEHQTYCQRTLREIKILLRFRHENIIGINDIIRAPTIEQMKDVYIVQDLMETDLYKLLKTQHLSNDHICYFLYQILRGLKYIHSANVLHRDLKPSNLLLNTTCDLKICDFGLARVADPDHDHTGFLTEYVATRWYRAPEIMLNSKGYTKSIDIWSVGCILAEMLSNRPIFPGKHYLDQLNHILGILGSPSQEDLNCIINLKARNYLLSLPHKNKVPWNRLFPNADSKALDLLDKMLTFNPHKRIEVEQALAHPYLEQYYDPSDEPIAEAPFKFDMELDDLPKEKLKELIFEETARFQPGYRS

[4] = biological target: T2, MAP kinase-activated protein kinase 5 (Homo sapiens) (UniProt Q8IW41); assay: Inhibition of human full length PRAK expressed in baculovirus assessed as substrate phosphorylation using fluorescence-labelled peptides as substrate at 420 uM after 90 mins by microfluidic peptide phosphorylation assay
T2 sequence (whole entry): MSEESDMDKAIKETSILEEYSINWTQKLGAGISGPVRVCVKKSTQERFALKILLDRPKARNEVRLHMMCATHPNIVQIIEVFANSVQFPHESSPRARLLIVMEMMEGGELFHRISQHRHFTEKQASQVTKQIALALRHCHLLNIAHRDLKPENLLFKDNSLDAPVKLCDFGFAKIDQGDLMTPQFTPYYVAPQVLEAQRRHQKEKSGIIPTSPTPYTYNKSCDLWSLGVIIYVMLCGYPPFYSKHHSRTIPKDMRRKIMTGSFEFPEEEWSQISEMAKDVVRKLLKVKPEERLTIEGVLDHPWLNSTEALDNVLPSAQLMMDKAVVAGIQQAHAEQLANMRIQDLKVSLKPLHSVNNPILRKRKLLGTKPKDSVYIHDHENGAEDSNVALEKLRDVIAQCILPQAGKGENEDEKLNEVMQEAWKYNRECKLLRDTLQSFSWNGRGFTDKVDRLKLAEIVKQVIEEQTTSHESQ

[5] = biological target: Cyclin-dependent kinase 2 (Homo sapiens) (UniProt P24941); assay: Inhibition of human full length CDK2 expressed in baculovirus assessed as substrate phosphorylation using fluorescence-labelled peptides as substrate at 95 uM after 90 mins by microfluidic peptide phosphorylation assay
[6] = tested on: Tyrosine-protein kinase ABL1 (Homo sapiens), P00519 [H396P]; assay: Inhibition of human truncated ABL H396P mutant expressed in baculovirus assessed as substrate phosphorylation using fluorescence-labelled peptides as substrate at 1000 uM after 90 mins by microfluidic peptide phosphorylation assay
[7] = biological target: Ribosomal protein S6 kinase alpha-5 (Homo sapiens) (UniProt O75582); assay: Inhibition of human full length MSK1 expressed in baculovirus assessed as substrate phosphorylation using fluorescence-labelled peptides as substrate at 1000 uM after 90 mins by microfluidic peptide phosphorylation assay
Ribosomal protein S6 kinase alpha-5 (Homo sapiens), sequence (O75582 whole entry, looked up): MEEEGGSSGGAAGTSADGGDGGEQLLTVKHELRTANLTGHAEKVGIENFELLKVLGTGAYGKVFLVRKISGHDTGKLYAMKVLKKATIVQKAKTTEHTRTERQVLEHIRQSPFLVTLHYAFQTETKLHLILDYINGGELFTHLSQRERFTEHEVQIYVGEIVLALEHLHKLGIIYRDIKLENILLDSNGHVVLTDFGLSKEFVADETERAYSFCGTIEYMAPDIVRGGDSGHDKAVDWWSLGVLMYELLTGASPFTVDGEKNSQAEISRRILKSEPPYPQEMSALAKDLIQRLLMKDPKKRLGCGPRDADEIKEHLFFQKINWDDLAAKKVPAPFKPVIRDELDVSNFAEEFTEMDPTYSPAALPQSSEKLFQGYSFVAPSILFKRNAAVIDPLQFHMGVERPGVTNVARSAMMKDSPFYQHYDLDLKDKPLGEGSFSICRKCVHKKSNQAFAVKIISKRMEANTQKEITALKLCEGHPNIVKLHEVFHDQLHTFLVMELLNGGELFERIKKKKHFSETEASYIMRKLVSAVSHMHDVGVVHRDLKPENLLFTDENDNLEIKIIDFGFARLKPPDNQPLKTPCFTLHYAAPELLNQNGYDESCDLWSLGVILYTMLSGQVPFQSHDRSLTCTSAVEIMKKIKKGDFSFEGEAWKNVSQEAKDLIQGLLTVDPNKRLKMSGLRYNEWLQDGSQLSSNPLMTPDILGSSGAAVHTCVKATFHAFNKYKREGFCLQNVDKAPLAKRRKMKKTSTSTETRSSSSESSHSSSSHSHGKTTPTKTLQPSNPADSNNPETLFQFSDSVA

[8] = biological target: MAP/microtubule affinity-regulating kinase 3 (Homo sapiens) (UniProt P27448); assay: Inhibition of human full length c-TAK1 expressed in Escherichia coli cell assessed as substrate phosphorylation using fluorescence-labelled peptides as substrate at 1000 uM after 90 mins by microfluidic peptide phosphorylation assay
[9] = biological target: Insulin-like growth factor 1 receptor (Homo sapiens) (UniProt P08069); assay: Inhibition of human IGF1R catalytic domain expressed in baculovirus assessed as substrate phosphorylation using fluorescence-labelled peptides as substrate at […] after 90 mins by microfluidic peptide phosphorylation assay
[10] = biological target: Ribosomal protein S6 kinase alpha-1 (Homo sapiens) (UniProt Q15418); assay: Inhibition of human full length RSK1 expressed in baculovirus assessed as substrate phosphorylation using fluorescence-labelled peptides as substrate at 8 uM after 90 mins by microfluidic peptide phosphorylation assay
Ribosomal protein S6 kinase alpha-1 (Homo sapiens), sequence (Q15418 whole entry): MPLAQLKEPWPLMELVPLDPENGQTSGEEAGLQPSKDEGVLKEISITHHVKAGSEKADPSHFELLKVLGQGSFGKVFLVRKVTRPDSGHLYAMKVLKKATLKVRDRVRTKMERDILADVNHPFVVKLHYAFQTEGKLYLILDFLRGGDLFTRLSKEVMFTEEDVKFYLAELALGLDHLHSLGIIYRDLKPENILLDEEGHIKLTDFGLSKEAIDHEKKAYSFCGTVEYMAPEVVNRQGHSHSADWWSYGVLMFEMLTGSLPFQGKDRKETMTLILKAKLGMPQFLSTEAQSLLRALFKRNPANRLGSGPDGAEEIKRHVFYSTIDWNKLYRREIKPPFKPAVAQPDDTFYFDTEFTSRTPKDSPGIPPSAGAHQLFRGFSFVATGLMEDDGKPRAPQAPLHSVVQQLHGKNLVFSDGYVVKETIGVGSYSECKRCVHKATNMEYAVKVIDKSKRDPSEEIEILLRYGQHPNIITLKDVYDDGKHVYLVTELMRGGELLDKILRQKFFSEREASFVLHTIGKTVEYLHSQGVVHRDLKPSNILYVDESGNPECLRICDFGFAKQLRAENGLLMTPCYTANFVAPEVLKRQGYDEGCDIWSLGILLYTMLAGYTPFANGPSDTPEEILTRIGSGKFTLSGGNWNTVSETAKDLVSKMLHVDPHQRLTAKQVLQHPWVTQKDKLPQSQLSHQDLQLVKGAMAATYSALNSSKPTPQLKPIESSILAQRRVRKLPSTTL

Question: For `Clc1ccc(C2(c3ccc(-c4ncnc5[nH]cnc45)cc3)CCNCC2)cc1`, which inhibition [1] is on record?
Answer: The inhibition was 13%.

Question: And the inhibition [2]?
Answer: The inhibition was 27.5%.

Question: What about the inhibition [3] of the same compound?
Answer: Its inhibition is 7%.

Question: Which inhibition [4] does the source give for `c1nc(N2CCOCC2)c2nc[nH]c2n1` here?
Answer: Its inhibition is 40%.

Question: How did the inhibition [5] turn out when `NCCc1ccc(-c2ncnc3[nH]cnc23)cc1` was run?
Answer: The inhibition was 39.5%.

Question: For `c1cnc2[nH]ccc2c1`, which inhibition [6] is on record?
Answer: Its inhibition is 44.5%.

Question: What about the inhibition [7] of the same compound?
Answer: The inhibition was 87%.

Question: What about the inhibition [8] of the same compound?
Answer: The inhibition was 77%.

Question: `COC(=O)c1cnc(Nc2cnc(C#N)cn2)cc1NCC1CCNCC1` was tested. Which inhibition [9] did it give?
Answer: The inhibition was 3.5%.

Question: Which inhibition [10] does the source give for `NCC1CCN(c2ncnc3[nH]ccc23)CC1` here?
Answer: The inhibition was 11.5%.
